From article PMC12582016, “Cupin‐Type Dimethylsulfoniopropionate Lyase from Pelagibacter ubique (DddK Pu ) Catalyzes Aza‐Michael Addition of Primary and Secondary Amines to Acrylic Acid” (Angewandte Chemie (International Ed. in English), 2025)

Assays:
[1] = molecular target: T1, DddK Pu (dimethylsulfoniopropionate (DMSP) lyase from Pelagibacter ubique HTCC1062) (Candidatus Pelagibacter communis, UniProt Q4FNM4); assay: HPLC end-point assay of acrylate formation; format: biochemical; settings: 50 mM triethanolamine pH 8.0, 25 °C; enzyme as isolated (mainly Zn, Fe, Ni)
T1 construct: gene SAR11_0394; His-tagged wild type, tag kept, recombinant in E. coli, purified; metals as isolated mainly Zn, Fe, Ni
T1 sequence (Q4FNM4 1-130): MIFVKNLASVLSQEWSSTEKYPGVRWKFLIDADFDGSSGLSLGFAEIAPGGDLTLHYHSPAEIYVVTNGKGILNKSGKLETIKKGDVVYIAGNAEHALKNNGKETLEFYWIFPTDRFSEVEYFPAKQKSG

[2] = molecular target: T1, DddK Pu (dimethylsulfoniopropionate (DMSP) lyase from Pelagibacter ubique HTCC1062); assay: end-point assay of acrylate consumption (aza-Michael addition); format: biochemical; settings: co-substrate sodium acrylate 100 mM; pyrrolidine 100 mM; 50 mM triethanolamine pH 8.0, 25 °C; promiscuous activity

| SMILES | HPLC end-point assay of acrylate formation [1] | end-point assay of acrylate consumption (aza-Michael addition) [2] |
| --- | --- | --- |
| C[S+](C)CCC(=O)[O-] [compound 1, DMSP] | The specific activity of DddK Pu was determined by the endpoint method | – |
| C1CCNC1 [6c, pyrrolidine] | – | Pyrrolidine (6c) was by far the most active secondary amine |
